Experiments:
PFKL [1] = target: T1, PFKL (Homo sapiens, UniProt P17858); experiment: SILAC competitive chemical proteomic assay (TH211 probe, LC-MS/MS); type: cell-based; conditions: HEK293T in situ, vehicle (light) vs inhibitor 2 μM (heavy) 1 hr, then TH211 50 μM 2 h; protein/site not given
T1 construct: endogenous in cells; host or cells: HEK293T
T1 sequence (P17858 1-780): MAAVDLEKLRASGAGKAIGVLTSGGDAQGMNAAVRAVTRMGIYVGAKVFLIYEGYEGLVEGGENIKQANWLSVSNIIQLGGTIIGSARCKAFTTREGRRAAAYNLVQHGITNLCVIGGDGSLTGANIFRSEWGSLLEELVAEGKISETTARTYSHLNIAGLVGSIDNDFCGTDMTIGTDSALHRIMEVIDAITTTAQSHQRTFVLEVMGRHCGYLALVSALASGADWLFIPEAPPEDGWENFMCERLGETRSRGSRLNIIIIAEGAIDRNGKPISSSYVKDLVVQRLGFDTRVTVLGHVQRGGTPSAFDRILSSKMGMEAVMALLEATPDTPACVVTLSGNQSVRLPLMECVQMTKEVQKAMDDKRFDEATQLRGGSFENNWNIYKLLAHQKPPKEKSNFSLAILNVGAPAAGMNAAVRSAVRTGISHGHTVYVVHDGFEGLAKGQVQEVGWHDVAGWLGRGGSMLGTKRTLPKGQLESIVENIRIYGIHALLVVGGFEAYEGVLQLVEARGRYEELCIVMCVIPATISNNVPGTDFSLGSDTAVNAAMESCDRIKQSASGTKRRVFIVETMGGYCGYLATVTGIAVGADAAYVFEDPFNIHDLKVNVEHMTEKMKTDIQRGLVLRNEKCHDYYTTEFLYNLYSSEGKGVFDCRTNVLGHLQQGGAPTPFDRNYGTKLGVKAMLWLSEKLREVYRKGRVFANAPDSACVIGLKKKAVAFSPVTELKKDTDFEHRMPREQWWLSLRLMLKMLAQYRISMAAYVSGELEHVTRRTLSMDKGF
Method: The light and heavy proteomes (2.3 mg/mL, 432 μL) prepared from HEK293T cells that were pretreated in situ with vehicle (DMSO) or the inhibitor (2 μM), respectively, at 37° C. for 1 hr followed by probe TH211 treatment (50 μM) for 2 h, were directly were subjected to click reaction with the desthiobiotin-PEG3-azide (10 mM in DMSO, 10 μL, final concentration 200 μM) in the presence of TCEP (50 mM, 10 μL), TBTA (1.7 mM, 33 μL) and CuSO4 (50 mM, 10 μL) at room temperature for 1 hr. The light and the heavy samples were mixed in the chloroform-methanol extraction step. The subsequent steps including reduction with dithiothreitol, alkylation with iodoacetamide, digestion with Trypsin/Lys-C, enrichment with avidin beads were conducted as previously described^26.
(§1) Some SuTEx analogues with RF001 fragment were synthesized and characterized. The in situ competition assay was then conducted, during which HEK293T cells were treated with 1 μM of a SuTEx analogue for 1 h, followed by treatment with 25 μM of TH211 as the probe for 2 h. […] The analogues with electron-donating groups like methyl or methoxy on the para position of phenyl performed better than those with electron-withdrawing groups. Under the same condition, the IC5o of TH220 was determined as 305.6 nM. The identity of the bound protein was studied by LC-MS/MS. The assay results indicated PFKL as the potential target and that binding sites include Y674 and K677, since the ratio trends are the same as that found in the in situ competition assay. To study selective targeting of PFKL by the series of SuTEx analogues, Fag-PFKL, Flag-PFKM, and Flag-PFKP were overexpressed in HEK293T cells and in vitro competition assays were performed for comparison. […] To optimize these SuTEx ligands, another series of derivatives were synthesized and evaluated with TH233 as a negative control and TH220 as positive control, respectively. […] Compared to TH220, the probinding activity of XJ-2-103 with trifluoromethyl group at para position of the phenyl ring is not as good, which is consistent with the results shown in FIG. 18A.

PFKL [2] = target: T1, PFKL; experiment: In situ gel-based ABPP, blockade of TH211 probe labeling in HEK293T cells; type: cell-based; conditions: then 25 μM TH211 2 h; for probinding activity (blockade of TH211 probe labeling), protein at ˜80 molecular weight: HEK293T cells in situ, 1 μM compound 1 h
Method: HEK293T cells were incubated in 10 cm petri dishes with DMEM medium supplemented with 10% fetal bovine serum and 1% L-glutamine until the confluency reached about 90%. Aspirate the medium and then add serum-free-medium (SFM) with vehicle only (DMSO) or SuTEx compounds in DMSO, which afforded final concentrations of 0.1% DMSO. After incubation at 37° C. for 1 hrs in CO2 incubator, the medium was aspirated and 25 μM of probe TH211 in SFM was added. After incubation at 37° C. for 2 hrs, the medium was aspirated and the cells were washed off in cold PBS. Centrifuge at 400×g for 5 min to pellet and resuspend pellet again in PBS for 2× total washes. The cell pellets were resuspended and lysed by sonication (1 sec pulse, 20% amplitude, 3 times) in PBS in the presence of EDTA-free protease inhibitor cocktail tablet (Pierce Biotechnology, Waltham, Massachusetts, United States of America). The cell lysates were subject to ultracentrifugation (100,000×g, 45 min at 4° C.) to separate the cytosolic fraction in the supernatant and the membrane fraction as a pellet. Protein concentrations in soluble fraction were measured by the Bio-Rad DC protein assay (Bio-Rad Laboratories, Hercules, California, United States of America). Proteome aliquots (2 mg/mL, 50 μL) were conjugated with fluorophore which was accomplished by copper-catalyzed azide-alkyne cycloaddition (CuAAC) with rhodamine-azide (TAMRA-azide, 1.25 mM, 1 μL, final concentration of 25 μM) in the presence of tris(2-carboxyethyl)phosphine (TCEP, 50 mM fresh in water, 1 μL, final concentration of 1 mM), tris[(1-benzyl-1H-1,2,3-triazol-4-yl)methyl]amine (TBTA, 1.7 mM in 4:1 t-butanol/DMSO, 3 μL, final concentration of 100 μM) and CuSO4 (50 mM, 1 μL, final concentration of 1 mM). After 1 hr incubation at room temperature, reactions were quenched by adding 4×SDS-PAGE loading buffer and beta-mercaptoethanol (17 μL) and samples were resolved by SDS-PAGE followed by in-gel fluorescence scanning.
as §1

[3] = HPLC solution reactivity of probe with p-cresol (tyrosine mimetic); type: physicochemical; conditions: UV 254 nm, TMG base, 0° C., longest time point tested 90 min
Method: (§2) Briefly, reaction progress of KY-26 or XO44 with p-cresol or n-butylamine (16.5 μmol, 3.3 eq.) in the presence of TMG base (1,1,3,3-tetramethylguanidine, 1.1 eq) was evaluated by monitoring probe consumption and quantified based on the signal from the caffeine standard using HPLC. Synthetic peptide reactions were conducted by mixing the peptide (Ac-RLNERHYGGLTGLNK-NH2, 50 nmol, 1.0 eq.) with 1.1 eq of TMG. KY-26 (550 nmol, 11.0 eq) was added to the mixture and the reaction was kept at 37° C. until the reaction achieved at least 50% conversion.
(§3) More particularly, an acetonitrile solution of p-cresol or n-butylamine (16.5 μmol, 3.3 eq.) was mixed with 1.1 eq of TMG. KY-26 or XO44 in ACN:DMF=6:4 (5 μmol, 1.0 eq.) was added to the mixture and the reaction was kept at 0° C. The final molarity for KY-26 or XO44 is 10 mM. Aliquots (50 μl) of the reaction were taken and quenched by adding acetic acid (0.5 M final, 5.0 μmol) and caffeine standard (0.05 M final, 0.5 μmol) at ten-minute intervals for 1.5 hrs. 1.0 μL sample was injected and analyzed by reverse-phase HPLC with mobile phases A (H2O, 0.1% AcOH) and B (CH3CN, 0.1% AcOH) with a gradient of 0-15-85-100% B in 0-0.5-6.5-7 min. UV measurements taken at 254 nm. Reaction progress was evaluated by monitoring KY-26 or XO44 consumption and quantified based on the signal from the caffeine standard. […]

[4] = HPLC solution reactivity of probe with n-butylamine (lysine mimetic); type: physicochemical; conditions: TMG base, 0° C., KY-26 compared with p-cresol
Method: as §2, §3

Structure (SMILES)	SILAC ratios (SR) from competitive chemical proteomic assay (PFKL [1])	probinding activity (blockade of TH211 probe labeling), protein at ˜80 molecular weight (PFKL [2])	other results
O=S(=O)(c1ccc(F)cc1)n1cc(CCN2CCC(=C(c3ccc(F)cc3)c3ccc(F)cc3)CC2)nn1 [TH221, 4-(Bis(4-fluorophenyl)methylene)-1-(2-(1-((4-fluorophenyl)sulfonyl)-1H-1,2,3-triazol-4-yl)ethyl)piperidine]	2.48		
COc1ccccc1S(=O)(=O)n1cc(CCN2CCC(=C(c3ccc(F)cc3)c3ccc(F)cc3)CC2)nn1 [XJ-2-141, 4-(Bis(4-fluorophenyl)methylene)-1-(2-(1-((2-methoxyphenyl)sulfonyl)-1H-1,2,3-triazol-4-yl)ethyl)piperidine]		good probinding activity	
O=S(=O)(c1ccc2c(c1)OCO2)n1cc(CCN2CCC(=C(c3ccc(F)cc3)c3ccc(F)cc3)CC2)nn1 [XJ-2-87]		good probinding activity	
C#CCNC(=O)c1cc(Nc2cc(C3CC3)[nH]n2)nc(N2CCN(Cc3ccc(S(=O)(=O)F)cc3)CC2)n1 [XO44, reference compound]			time to near-complete depletion of probe in reaction with p-cresol [3]: > 90 min; reaction of probe with n-butylamine [4]: minimal reaction
Cc1ccc(S(=O)(=O)n2cc(CCN3CCN(C(c4ccc(F)cc4)c4ccc(F)cc4)CC3)nn2)cc1 [TH208, 1-(Bis(4-fluorophenyl)methyl)-4-(2-(1-tosyl-1H-1,2,3-triazol-4-yl)ethyl)piperazine]	1.04		
O=S(=O)(c1ccc2c(c1)OC(F)(F)O2)n1cc(CCN2CCC(=C(c3ccc(F)cc3)c3ccc(F)cc3)CC2)nn1 [XJ-2-115, 4-(Bis(4-fluorophenyl)methylene)-1-(2-(1-((2,2-difluorobenzo[d][1,3]dioxol-5-yl)sulfonyl)-1H-1,2,3-triazol-4-yl)ethyl)piperidine]		good probinding activity	
COc1ccc(S(=O)(=O)n2cc(CCN3CCC(=C(c4ccc(F)cc4)c4ccc(F)cc4)CC3)nn2)cc1	8.41		IC50 (PFKL [2]; HEK293T cells, compound 1 h, read-out: IC50 against PFKL, in situ TH211 chemical proteomic assay): 306 nM
O=S(=O)(C1CC1)n1cc(CCN2CCC(=C(c3ccc(F)cc3)c3ccc(F)cc3)CC2)nn1 [TH223, 4-(bis(4-fluorophenyl)methylene)-1-(2-(1-(cyclopropylsulfonyl)-1H-1,2,3-triazol-4-yl)ethyl)piperidine]	0.95		
O=S(=O)(c1ccc2c(c1)OCCO2)n1cc(CCN2CCC(=C(c3ccc(F)cc3)c3ccc(F)cc3)CC2)nn1 [XJ-2-77, 4-(Bis(4-fluorophenyl)methylene)-1-(2-(1-((2,3-dihydrobenzo[b][1,4]dioxin-6-yl)sulfonyl-)-1H-1,2,3-triazol-4-yl)ethyl)piperidine]		good probinding activity	
